Target: T1, hSFRP-1 (Homo sapiens, UniProt Q8N474)
T1 construct: expressed in transfected cells; host or cells: U2OS osteosarcoma cells (ATCC, HTB 96), transient co-transfection with Wnt 3, Wnt3A or Wnt 1, 16x TCF-tk-Luciferase reporter and CMV-beta-gal
T1 sequence (Q8N474 32-314): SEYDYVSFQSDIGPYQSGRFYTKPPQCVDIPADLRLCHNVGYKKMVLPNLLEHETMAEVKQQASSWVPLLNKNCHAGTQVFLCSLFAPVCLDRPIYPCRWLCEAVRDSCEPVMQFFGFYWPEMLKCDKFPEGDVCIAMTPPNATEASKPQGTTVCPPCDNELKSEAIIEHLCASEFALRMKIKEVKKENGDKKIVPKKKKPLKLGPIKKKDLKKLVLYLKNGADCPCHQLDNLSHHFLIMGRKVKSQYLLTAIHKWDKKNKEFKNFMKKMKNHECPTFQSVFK
Assay: Cell-Based Assay for In Vitro Measurement of SFRP-1/SARP2 Antagonist Activity (U2OS cells, 16x TCF-tk-Luciferase reporter, Wnt + hSFRP-1 co-transfection)
Conditions: initial single dose screening at 10 μM; for Ratio: ratio not defined
Protocol: Cell-Based Assay for In Vitro Measurement of SFRP-1/SARP2 Antagonist Activity
The following cell-based assay can be used to identify inhibitors of SFRP-1.
The osteosarcoma cell line, U2OS (ATCC, HTB 96), was passaged twice a week with growth medium (McCoy's SA medium containing 10% (v/v) fetal calf serum, 2 mM GlutaMAX-1, and 1% (v/v) Penicillin-Streptomycin). The cells were maintained in vented flasks at 37° C. inside a 5% CO2/95% humidified air incubator. One day prior to transfection, the cells were plated with growth medium at 25,000 cells/well into 96-well plates and incubated at 37° C. overnight.
The growth medium was removed, and the cells were washed once with OPTIMEM I (Gibco-BRL) medium (100 μl/well) to remove the serum and antibiotics. The wash medium was removed, and the cells were re-fed with OPTI-MEM I medium (100 μl/well). For each well of cells to be transfected, the following DNA's were diluted together in 25 μl OPTI-MEM I medium: 0.1 μg 16× TCF-tk-Luciferase reporter, 0.02 μg Wnt 3, Wnt3A, Wnt 1 or empty vector (Upstate Biotechnology), 0.075 μg hSFRP-1 or empty vector (pcDNA3.1, Invitrogen), and 0.025 μg CMV-®gal (Clonetech). For each well of cells to be transfected, 1 μl of Lipofectamine 2000 reagent (Invitrogen) was diluted in 25 μl OPTI-MEM I medium and incubated at room temperature for 5 minutes. The diluted DNA's were then combined with the diluted Lipofectamine 2000 (LF2000), and the mixture was incubated at room temperature for 20 minutes. Fifty μl of the DNA-LF 2000 mixture was added to each well, and the plate(s) were incubated at 37° C. in a 5% CO2/95% humidified air incubator for 4 hours. The cells were washed once with 150 μl/well of experimental medium (phenol red-free RPMI Medium 1640 containing 2% fetal bovine serum, 2 mM GlutaMAX-1, and 1% Penicillin-Streptomycin). Finally, the cells were treated overnight at 37° C. with 200 μl/well of experimental medium containing either vehicle (typically DMSO) or diluted compound in replicates of 8 wells/compound.
Initial single dose screening of test compounds was done at 10 μM.
Dose-response experiments were initially performed with the compounds in log increases from 1-10,000 nM. From these dose-response curves, EC50 values were generated.
After treatment, the cells were washed twice with 150 μl/well of PBS without calcium or magnesium and were lysed with 50 μl/well of 1× cell culture lysis reagent (Promega Corporation) on a shaker at room temperature for 30 minutes. Thirty μl aliquots of the cell lysates were transferred to 96-well luminometer plates, and luciferase activity was measured in a MicroLumat PLUS luminometer (EG&G Berthold), or a Victor (PerkinElmer Life Sciences) using […] of luciferase substrate (Promega Corporation). Following the injection of substrate, luciferase activity was measured for 10 seconds after a 1.6 second delay. Similarly, 10 μl aliquots of the cell lysates were transferred to separate 96-well luminometer plates, and 50 μl of Galacton chemiluminescent substrate (Tropix) was added to each well. The plates were covered and incubated on a rotary shaker at room temperature for one hour. ®gal activity was measured in a MicroLumat PLUS luminometer or Victor using 100 μl/well of Light Emission Accelerator (Tropix). Following the injection of the accelerator, ®gal activity was measured for 10 seconds after a 1.6 second delay. The luciferase and ®gal activity data were transferred from the luminometer to a PC and analyzed using the SAS/Excel program. After the luciferase activity was normalized to ®gal, the SAS/Excel program was used to determine the mean and standard deviation of each treatment, to analyze the data for statistical significance, and to determine EC50 values.
As an alternative to co-transfection in a 96 well plate, the U2OS cells were transfected in T225 flasks and the transfected cells were frozen. The frozen cells were thawed and plated on a 96 well plate and the assay was carried out as detailed above. […]

[1] = luciferase reporter activity, fold induction over SFRP-1 control

N=C1NC(=O)C(CC(=O)Nc2cccc([N+](=O)[O-])c2)S1 (stereo not drawn) [Example 29, 2-(2-imino-4-oxo-1,3-thiazolidin-5-yl)-N-(3-nitrophenyl)acetamide]
fold induction at 10 µM [1]: 1.7
Ratio: 1.4

CC(=O)c1cccc(NC(=O)CC2SC(=N)NC2=O)c1 (stereo not drawn) [Example 30, N-(3-acetylphenyl)-2-(2-imino-4-oxo-1,3-thiazolidin-5-yl)acetamide]
fold induction at 10 µM [1]: 1.2
Ratio: 1.1

N=C1NC(=O)C(CC(=O)Nc2cccc(OC(F)(F)F)c2)S1 (stereo not drawn) [Example 31, 2-(2-imino-4-oxo-1,3-thiazolidin-5-yl)-N-[3-(trifluoromethoxy)phenyl]acetamide]
fold induction at 10 µM [1]: 1.7
Ratio: 1.5

N=C1NC(=O)C(CC(=O)Nc2sc3c(c2C(N)=O)CCCC3)S1 (stereo not drawn) [Example 32, 2-{[(2-imino-4-oxo-1,3-thiazolidin-5-yl)acetyl]amino}-4,5,6,7-tetrahydro-1-benzothiophene-3-carboxamide]
fold induction at 10 µM [1]: 1
Ratio: 1.1

CCOC(=O)c1cc(CC)sc1NC(=O)CC1SC(=N)NC1=O (stereo not drawn) [Example 33, ethyl 5-ethyl-2-{[(2-imino-4-oxo-1,3-thiazolidin-5-yl)acetyl]amino}thiophene-3-carboxylate]
fold induction at 10 µM [1]: 1.5
Ratio: 1.7

COC(=O)c1ccsc1NC(=O)CC1SC(=N)NC1=O (stereo not drawn) [Example 34, methyl 2-{[(2-imino-4-oxo-1,3-thiazolidin-5-yl)acetyl]amino}thiophene-3-carboxylate]
fold induction at 10 µM [1]: 1.2
Ratio: 1.3

CCOC(=O)c1c(NC(=O)CC2SC(=N)NC2=O)sc2c1CCCC2 (stereo not drawn) [Example 35, ethyl 2-{[(2-imino-4-oxo-1,3-thiazolidin-5-yl)acetyl]amino}-4,5,6,7-tetrahydro-1-benzothiophene-3-carboxylate]
fold induction at 10 µM [1]: 1.4
Ratio: 1.6

CCOC(=O)c1c(NC(=O)CC2SC(=N)NC2=O)sc2c1CCCCC2 (stereo not drawn) [Example 36, ethyl 2-{[(2-imino-4-oxo-1,3-thiazolidin-5-yl)acetyl]amino}-5,6,7,8-tetrahydro-4H-cyclohepta[b]thiophene-3-carboxylate]
fold induction at 10 µM [1]: 1.5
Ratio: 1.9

COC(=O)c1c(NC(=O)CC2SC(=N)NC2=O)sc2c1CCC(OC)C2 (stereo not drawn) [Example 37, methyl 2-{[(2-imino-4-oxo-1,3-thiazolidin-5-yl)acetyl]amino}-6-methoxy-4,5,6,7-tetrahydro-1-benzothiophene-3-carboxylate]
fold induction at 10 µM [1]: 1.5
Ratio: 1.7

COC(=O)c1c(NC(=O)CC2SC(=N)NC2=O)sc2c1CCCC2 (stereo not drawn) [Example 38, methyl 2-{[(2-imino-4-oxo-1,3-thiazolidin-5-yl)acetyl]amino}-4,5,6,7-tetrahydro-1-benzothiophene-3-carboxylate]
fold induction at 10 µM [1]: 1.3
Ratio: 1.4

COC(=O)c1sc(C(C)(C)C)cc1NC(=O)CC1SC(=N)NC1=O (stereo not drawn) [Example 42, methyl 5-tert-butyl-3-{[(2-imino-4-oxo-1,3-thiazolidin-5-yl)acetyl]amino}thiophene-2-carboxylate]
fold induction at 10 µM [1]: 1.5
Ratio: 1.7

COC(=O)c1scc(C)c1NC(=O)CC1SC(=N)NC1=O (stereo not drawn) [Example 43, methyl 3-{[(2-imino-4-oxo-1,3-thiazolidin-5-yl)acetyl]amino}-4-methylthiophene-2-carboxylate]
fold induction at 10 µM [1]: 1
Ratio: 1.0

CCOC(=O)c1c(NC(=O)CC2SC(=N)NC2=O)sc2c1CCC2 (stereo not drawn) [Example 44, ethyl 2-{[(2-imino-4-oxo-1,3-thiazolidin-5-yl)acetyl]amino}-5,6-dihydro-4H-cyclopenta[b]thiophene-3-carboxylate]
fold induction at 10 µM [1]: 1.6
Ratio: 1.5

CCOC(=O)c1c(-c2ccccc2)csc1NC(=O)CC1SC(=N)NC1=O (stereo not drawn) [Example 45, ethyl 2-{[(2-imino-4-oxo-1,3-thiazolidin-5-yl)acetyl]amino}-4-phenyIthiophene-3-carboxylate]
Fold induction with SFRP-1 [1]: 1.1 fold
Ratio: 1.0

CCOC(=O)c1c(-c2ccco2)csc1NC(=O)CC1SC(=N)NC1=O (stereo not drawn) [Example 46, ethyl 4-(2-furyl)-2-{[(2-imino-4-oxo-1,3-thiazolidin-5-yl)acetyl]amino}thiophene-3-carboxylate]
fold induction at 10 µM [1]: 1.1
Ratio: 1.0

CCOC(=O)c1c(-c2ccc(F)cc2)csc1NC(=O)CC1SC(=N)NC1=O (stereo not drawn) [Example 47, ethyl 4-(4-fluorophenyl)-2-{[(2-imino-4-oxo-1,3-thiazolidin-5-yl)acetyl]amino}thiophene-3-carboxylate]
fold induction at 10 µM [1]: 1.1
Ratio: 1.0

CCOC(=O)c1c(NC(=O)CC2SC(=N)NC2=O)sc(C)c1-c1ccccc1 (stereo not drawn) [Example 48, ethyl 2-{[(2-imino-4-oxo-1,3-thiazolidin-5-yl)acetyl]amino}-5-methyl-4-phenylthiophene-3-carboxylate]
fold induction at 10 µM [1]: 1.6
Ratio: 1.8

N#Cc1c(NC(=O)CC2SC(=N)NC2=O)sc2c1CCCC2 (stereo not drawn) [Example 49, N-(3-cyano-4,5,6,7-tetrahydro-1-benzothien-2-yl)-2-(2-imino-4-oxo-1,3-thiazolidin-5-yl)acetamide]
fold induction at 10 µM [1]: 1.6
Ratio: 1.2

COC(=O)c1ccccc1NC(=O)CC1SC(=N)NC1=O (stereo not drawn) [Example 50, methyl 2-{[(2-imino-4-oxo-1,3-thiazolidin-5-yl)acetyl]amino}benzoate]
fold induction at 10 µM [1]: 1.1
Ratio: 1.0

CCOC(=O)c1ccccc1NC(=O)CC1SC(=N)NC1=O (stereo not drawn) [Example 51, ethyl 2-{[(2-imino-4-oxo-1,3-thiazolidin-5-yl)acetyl]amino}benzoate]
fold induction at 10 µM [1]: 1.1
Ratio: 1.1

COC(=O)c1cc(Cl)ccc1NC(=O)CC1SC(=N)NC1=O (stereo not drawn) [Example 52, methyl 5-chloro-2-{[(2-imino-4-oxo-1,3-thiazolidin-5-yl)acetyl]amino}benzoate]
fold induction at 10 µM [1]: 1.1
Ratio: 1.1

COC(=O)c1cc(OC)c(OC)cc1NC(=O)CC1SC(=N)NC1=O (stereo not drawn) [Example 53, methyl 2-{[(2-imino-4-oxo-1,3-thiazolidin-5-yl)acetyl]amino}-4,5-dimethoxybenzoate]
fold induction at 10 µM [1]: 1
Ratio: 1.0

CCOC(=O)c1c(NC(=O)CC2SC(=N)NC2=O)sc(Br)c1C (stereo not drawn) [Example 54, Ethyl 5-bromo-2-{[(2-imino-4-oxo-1,3-thiazolidin-5-yl)acetyl]amino}-4-methylthiophene-3-carboxylate]
fold induction at 10 µM [1]: 2.6
Ratio: 2.6

CC(C)(C)OC(=O)c1cc(-c2ccccc2)sc1NC(=O)CC1SC(=N)NC1=O (stereo not drawn) [Example 55, tert-butyl 2-{[(2-imino-4-oxo-1,3-thiazolidin-5-yl)acetyl]amino}-5-phenylthiophene-3-carboxylate]
fold induction at 10 µM [1]: 1.2
Ratio: 0.9

Source: patent US7563813B2, “Iminothiazolidinone derivatives as SFRP-1 antagonists” (Wyeth, priority 2005, dated 2009)
